For orientation: pIC50 means the IC50 on a negative log10 scale, so that one unit is a factor of ten.

This is an account of results in patent US11571480B2, “Multi-ligand drug conjugates and uses thereof” (priority 2015, dated 2023).

pIC50: −log10 of the molar value.

The test system of data set [1] is KB (folate receptor positive cell). The data set is described as follows: Endocytosis test of conjugate LDC10B (FITC conjugates, confocal microscope). More on the design: endocytosis after pre-incubation with free Folate: dose or concentration left out as unconfirmed. The format is cell-based, human. The method, then:
(§1) The involved conjugates are as follows: Folate-FITC (FITC-ACP-Lys (Folate)-OH), 10B-FITC, and 10A-FITC.
(§2) Culture medium: RPMI 1640 Medium, no folic acid
(§3) 1) human nasopharyngeal cancer cell line KB, melanoma cell line A375, human lung cancer cell H460, ovarian cancer cell SKOV3, breast cancer cell line HCC1954 were incubated at 37° C., 5% CO2 in RPMI 1640 medium containing 10% fetal bovine serum, the cells were passaged every 2-3 days.
(§4) 2) human nasopharyngeal cancer cell line KB, melanoma cell line A375, human lung cancer cell H460, ovarian cancer cell SKOV3, breast cancer cell line HCC1954 were plated at 1×10^3 cells per well (96-well plate) and incubated for 8-12 h at 37° C., 5% CO2.
(§5) 3) 1 μM of FITC conjugates or control was added to the cells in the plate and incubated for 10-15 min at 37° C. The culture medium in the wells was then removed by aspiration and the cells were washed with PBS for three times.
(§6) 4) cells were then imaged with confocal microscope (brand) to visualize endocytosis.

The test system of data set [2] is A375 (folate receptor negative cell). The data set is described as above. The format is cell-based. The conditions noted are these: 1 μM FITC conjugate, 10-15 min at 37° C. Here is the method: as §1, §2, §3, §4, §5, §6
The subject of data set [3] is human embryonic kidney cell 293A. The data set is described as follows: Cytotoxicity test of conjugate LDC11B. The format is cell-based. The conditions noted are these: incubated 15-30 min, then 2-3 days. Here is the method:
as §2
(§7) 1) human lung cancer cell H460, ovarian cancer cell SKOV3, human embryonic kidney cell 293A were incubated at 37° C., 5% CO2 in RPMI 1640 medium containing 10% fetal bovine serum, the cells were passaged every 2-3 days.
(§8) 2) human lung cancer cell H460, ovarian cancer cell SKOV3, human embryonic kidney cell 293A were plated at 1×10^3 cells per well (96-well plate) and incubated for 8-12 h at 37° C., 5% CO2.
(§9) 3) Stock solutions of LDC conjugates or control were prepared in PBS solution. 100 μL/well of serially diluted LDC conjugates or control was added to the cells in the plate and incubated for 15-30 min at 37° C., 5% CO2. The culture medium in the wells was then removed by aspiration and the cells were incubated in fresh culture medium without conjugates (150 μL/well) for 2-3 days at 37° C., 5% CO2.
(§10) 4) CellTiter 96® Aqueous One Solution Cell Proliferation Assay (Promega) was added to each well to measure the amount of […] cells, and the plate was incubated in an incubator for 1 h at 37° C., 5% CO2.
(§11) 5) The plate was read at 490 nm on a microplate reader, and the cell survivals were compared for cells with or without the treatment of LDC conjugates. The LDC drug concentrations that are required for 50% cell death (IC50 values) were determined.

Data set [4] has as its system human lung cancer cell H460. The data set is described as follows: Cytotoxicity test of conjugate LDC11B. The format is cell-based. The conditions noted are these: H460, incubated 15-30 min, then 2-3 days. Here is the method: as §2, §7, §8, §9, §10, §11
Data set [5] deals with human lung cancer cell H1299. The data set is described as follows: Cytotoxicity test of conjugate LDC10B. The following applies: H1299, Incubation Time 30 min. The format is cell-based. The method, then:
as §2
(§12) 1) human nasopharyngeal cancer cell line KB, melanoma cell line A375, human lung cancer cell H1299, chronic myeloid leukemia cell line K562, human lung cancer cell H460, ovarian cancer cell SKOV3, breast cancer cell line HCC1954, human gastric cancer cell N87, and human breast cancer cell SK-BR-3 were incubated at 37° C., 5% CO2 in RPMI 1640 medium containing 10% fetal bovine serum, the cells were passaged every 2-3 days.
(§13) 2) human nasopharyngeal cancer cell line KB, melanoma cell line A375, human lung cancer cell H1299, chronic myeloid leukemia cell line K562, human lung cancer cell H460, ovarian cancer cell SKOV3, breast cancer cell line HCC1954, human gastric cancer cell N87, and human breast cancer cell SK-BR-3 were plated at 1×10^3 cells per well (96-well plate) and incubated for 8-12 h at 37° C., 5% CO2.
(§14) 3) Stock solutions of LDC conjugates or controls were prepared in PBS solution. 100 μL/well of serially diluted LDC conjugates or controls was added to the test cells in the plates and incubated for 15-30 min at 37° C., 5% CO2. The culture medium in the wells was then removed by aspiration and the test cells were incubated in fresh culture medium without conjugates (150 μL/well) for 2-3 days at 37° C., 5% CO2.
(§15) 4) CellTiter 96® Aqueous One Solution Cell Proliferation Assay (Promega) was added to each well to measure the amount of […] cells, and each plate was incubated in an incubator for 1 h at 37° C., 5% CO2.
(§16) 5) Each plate was read at 490 nm on a microplate reader, and the cell survivals were compared for test cells with or without the treatment of LDC conjugates. The LDC drug concentrations that are required for 50% cell death (IC50 values) were determined.

Data set [6] deals with human lung cancer cell H460. The data set is described as follows: Cytotoxicity test of conjugate LDC10B. The format is cell-based. The conditions noted are these: H460, Incubation Time 30 min. The method, then:
as §2, §12, §13, §14, §15, §16

In data set [7] the test system is human breast cancer cell SK-BR-3. The data set is described as follows: Cytotoxicity test of conjugate LDC10B. In kind it is cell-based. The following applies: SK-BR-3, Incubation Time 30 min. Here is the method:
as §2, §12, §13, §14, §15, §16

Data set [8] has as its system human gastric cancer cell N87. As to the kind of experiment: Cytotoxicity test of conjugate LDC10B. The format is cell-based. The conditions noted are these: N87, Incubation Time 30 min. The method, then:
as §2, §12, §13, §14, §15, §16

Data set [9] deals with human nasopharyngeal cancer cell line KB. As to the kind of experiment: Cytotoxicity test of conjugate LDC10B. The following applies: Incubation Time 15 min. In kind it is cell-based. Here is the method:
as §2, §12, §13, §14, §15, §16

Data set [10] deals with chronic myeloid leukemia cell line K562. As to the kind of experiment: Cytotoxicity test of conjugate LDC10B. The format is cell-based. The conditions noted are these: K562, Incubation Time 30 min. The method, then:
as §2, §12, §13, §14, §15, §16

Data set [11] has as its system melanoma cell line A375. As to the kind of experiment: Cytotoxicity test of conjugate LDC10B. In kind it is cell-based. The conditions noted are these: A375, Incubation Time 15 min. The method, then: as §2, §12, §13, §14, §15, §16
The test system of data set [12] is human lung cancer cell H460. As to the kind of experiment: Cytotoxicity test of conjugate LDC1013. In kind it is cell-based. The following applies: H460, incubated 15-30 min, then 2-3 days. Here is the method:
as §2
(§17) 1) human nasopharyngeal cancer cell line KB, melanoma cell line A375, and human lung cancer cell H460 were incubated at 37° C., 5% CO2 in RPMI 1640 medium containing 10% fetal bovine serum, the cells were passaged every 2-3 days.
(§18) 2) human nasopharyngeal cancer cell line KB, melanoma cell line A375, and human lung cancer cell H460 were plated at 1×10^3 cells per well (96-well plate) and incubated for 8-12 h at 37° C., 5% CO2.
as §9, §10
(§19) 5) the plate was read at 490 nm on a microplate reader, and the cell survivals were compared for cells with or without the treatment of LDC conjugates. The LDC drug concentrations that are required for 50% cell death (IC50 values) were determined.

Data set [13] relates to human nasopharyngeal cancer cell line KB. The data set is described as follows: Cytotoxicity test of conjugate LDC1013. The format is cell-based. The following applies: incubated 15-30 min, then 2-3 days. Here is the method: as §2, §17, §18, §9, §10, §19
Data set [14] has as its system melanoma cell line A375. The data set is described as follows: Cytotoxicity test of conjugate LDC1013. In kind it is cell-based. The following applies: A375, incubated 15-30 min, then 2-3 days. Here is the method:
as §2, §17, §18, §9, §10, §19

Data set [15] concerns ovarian cancer cell SKOV3. The data set is described as follows: Cytotoxicity test of conjugate LDC11B. In kind it is cell-based, human. The conditions noted are these: SKOV3, incubated 15-30 min, then 2-3 days. Here is the method:
as §2, §7, §8, §9, §10, §11

Data set [16] deals with human nasopharyngeal cancer cell line KB. As to the kind of experiment: Cytotoxicity test of conjugate LDC13B. In kind it is cell-based. The following applies: KB, incubated 15-30 min, then 2-3 days. Here is the method:
as §2
1) human nasopharyngeal cancer cell line KB, human colon carcinoma HCT-116, human prostatic cancer cell PC-3, human gastric cancer cell line GTL-16, human endometrial cancer cell HEC-1A, and human gastric cancer cell N87 were incubated at 37° C., 5% CO2 in RPMI 1640 medium containing 10% fetal bovine serum, the cells were passaged every 2-3 days.
2) human nasopharyngeal cancer cell line KB, human colon carcinoma HCT-116, human prostatic cancer cell PC-3, human gastric cancer cell line GTL-16, human endometrial cancer cell HEC-1A, and human gastric cancer cell N87 were plated at 1×10^3 cells per well (96-well plate) and incubated for 8-12 h at 37° C., 5% CO2.
as §9, §10, §19

In data set [17] the test system is breast cancer cell line HCC1954. As to the kind of experiment: Cytotoxicity test of conjugate LDC10B. In kind it is cell-based, human. The following applies: HCC1954, Incubation Time 30 min. Here is the method:
as §2, §12, §13, §14, §15, §16

Data set [18] concerns ovarian cancer cell SKOV3. The data set is described as follows: Cytotoxicity test of conjugate LDC10B. The conditions noted are these: SKOV3, Incubation Time 30 min. In kind it is cell-based, human. Here is the method: as §2, §12, §13, §14, §15, §16
The test system of data set [19] is human lung cancer cell H1299. As to the kind of experiment: Cytotoxicity test of conjugate LDC10H. In kind it is cell-based. The conditions noted are these: H1299, incubated 15-30 min, then 2-3 days. Here is the method:
as §2
(§20) 1) human lung cancer cell H1299, ovarian cancer cell SKOV3, breast cancer cell line HCC1954, and human lung cancer cell H460 were incubated at 37° C., 5% CO2 in RPMI 1640 medium containing 10% fetal bovine serum, the cells were passaged every 2-3 days.
(§21) 2) human lung cancer cell H1299, ovarian cancer cell SKOV3, breast cancer cell line HCC1954, and human lung cancer cell H460 were plated at 1×10^3 cells per well (96-well plate) and incubated for 8-12 h at 37° C., 5% CO2.
as §9, §10, §19

Data set [20] has as its system human lung cancer cell H460. As to the kind of experiment: Cytotoxicity test of conjugate LDC10H. The format is cell-based. The following applies: H460, incubated 15-30 min, then 2-3 days. The method, then:
as §2, §20, §21, §9, §10, §19

Data set [21] relates to breast cancer cell line HCC1954. As to the kind of experiment: Cytotoxicity test of conjugate LDC10H. In kind it is cell-based, human. The following applies: HCC1954, incubated 15-30 min, then 2-3 days. Here is the method:
as §2, §20, §21, §9, §10, §19

The subject of data set [22] is ovarian cancer cell SKOV3. The data set is described as follows: Cytotoxicity test of conjugate LDC10H. In kind it is cell-based, human. The conditions noted are these: SKOV3, incubated 15-30 min, then 2-3 days. Here is the method: as §2, §20, §21, §9, §10, §19

Take FITC-ACP-Lys (Folate)-OH [Folate-FITC]: the “endocytosis (enters cells)” value is “enters KB cells” in [1] (1 μM FITC conjugate, 10-15 min at 37° C., KB cells) and “but not A375 cells” in data set [2]. Further, the “endocytosis after pre-incubation with free Folate” value in data set [1] (pre-incubating KB cells with (50 fold excess of conjugate) free Folate, data not shown) was “completely blocked”.

For “Folate-(PEG)3-MC-Val-Cit-PAB-MMAE [LDC1]”, the pIC50 in data set [3] is 6.15; in [4], 6.28; in data set [5], 6.58; in [6], 6.72; in data set [7], 7.01; in data set [8], 6.62. Also, the pIC50 in data set [9] was 4.82; in [10] it was 7.03; with melanoma cell line A375 [11] it was 5.00; in [12] it was 5.03; in data set [13], 5.40; in the data set on melanoma cell line A375 [14], 4.43. In addition, the negative logarithm of the IC50 (pIC50) in data set [15] was 6.53; in [16], 7.19; in data set [17], 7.03; in data set [18], 6.99; in data set [19], 6.73; in [20], 6.86. Besides, the values for the pIC50 in data set [21] and in [22] were 7.11 and 6.70, respectively.
